Test systems include HOP-62; SK-MEL-5; 786-0; COLO 205; HT-29; IGROV-1; HCT-116; M14; U-251; MDA-MB-435; RPMI-8226; SR; HL-60; KM12; OVCAR-5; CAKI-1; MDA-N; LOX IMVI; Malme-3M; A498.
Holding throughout (test): NCI tumour cell line growth inhibition, 48 h

From ChEMBL document CHEMBL1201862, “PubChem BioAssay data set” (2004) come the findings set out here.

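Cells were grown in 96-well plates and exposed to each compound for 48 hours at five concentrations; endpoints were interpolated linearly between bracketing concentrations, or set to the highest concentration if not reached. GI50 = concentration required for 50% inhibition of growth.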 The source made the active and inactive calls. No stated cut-off is given here; in the data, active = GI50 up to about 1.1 µM and inactive = higher.

In the case of `COc1ccc(C(=CCC(C)C2CCC3[C@@H]4C(OC(C)=O)CC5CC(OC(C)=O)CC[C@]5(C)C4CC(OC(C)=O)[C@]23C)c2ccc(OC)cc2)cc1` (stereo partly specified), the GI50 in the assay with HOP-62, in the assay with SK-MEL-5, with 786-0, in the assay on COLO 205, in the assay with HT-29 and in the assay with IGROV-1 was > 100 µM (inactive) in each case. Moreover, the GI50 in the assay on HCT-116 is 66.1 µM (inactive); in the assay with M14 it was 19.1 µM (inactive); in the assay with U-251, > 100 µM (inactive); in the assay with MDA-MB-435, 77.1 µM (inactive); in the assay with RPMI-8226 it was 29.2 µM (inactive); in the assay on SR, 19.5 µM (inactive). The values for the GI50 with HL-60, with KM12 and in the assay with OVCAR-5 were 8.02 µM (inactive), 76.6 µM (inactive) and 72.8 µM (inactive), respectively.
With `CC1(C)CC(=O)C(=CNC(=S)c2ccccc2)C(=O)C1`, the GI50 in the assay on HOP-62, in the assay on SK-MEL-5, in the assay on CAKI-1, in the assay on 786-0, in the assay with COLO 205 and with HT-29 was > 100 µM (inactive) in each case. Also, the GI50 in the assay with MDA-N, in the assay with IGROV-1, with HCT-116, with M14, with U-251 and in the assay on MDA-MB-435 was > 100 µM (inactive) in each case. Also, the GI50 with HL-60 is 32.3 µM (inactive); in the assay with KM12, > 100 µM (inactive); in the assay on OVCAR-5 it was > 100 µM (inactive); with LOX IMVI, > 100 µM (inactive).
Turning to `O=C(O)C1=Cc2cccc3cccc(c23)C1=O`, the GI50 with HOP-62, with SK-MEL-5, in the assay on CAKI-1, in the assay on 786-0, in the assay on COLO 205 and with HT-29 was > 100 µM (inactive) each time. Besides, the GI50 in the assay with IGROV-1, with HCT-116, in the assay with M14, in the assay with U-251, in the assay with RPMI-8226 and in the assay with SR was > 100 µM (inactive) throughout. The GI50 in the assay on Malme-3M was > 100 µM (inactive); with HL-60, > 100 µM (inactive); with KM12, > 100 µM (inactive); with OVCAR-5 it was > 100 µM (inactive); in the assay on A498 it was 24.3 µM (inactive); in the assay with LOX IMVI, > 100 µM (inactive).
In the case of `O=C(N/C(=C\c1cc(Cl)ccc1Cl)c1nc2cc(Cl)ccc2[nH]1)c1ccccc1`, the GI50 in the assay on HOP-62 was 18 µM (inactive); with SK-MEL-5 it was 13.2 µM (inactive); in the assay on CAKI-1 it was 22 µM (inactive); in the assay with 786-0 it was 24.8 µM (inactive); with COLO 205, 18.8 µM (inactive); with HT-29, 16.4 µM (inactive). Also, the GI50 in the assay on IGROV-1 is 13.1 µM (inactive); with HCT-116, 10.5 µM (inactive); in the assay on M14 it was 17.1 µM (inactive); with U-251, 16.1 µM (inactive); with RPMI-8226 it was 12.2 µM (inactive); with SR it was 5.43 µM (inactive). Moreover, the GI50 with Malme-3M is 18.9 µM (inactive); in the assay with HL-60, 14.3 µM (inactive); with KM12, 15.4 µM (inactive); in the assay with OVCAR-5 it was 21.2 µM (inactive); with A498, 21.4 µM (inactive); with LOX IMVI it was 13.6 µM (inactive).
Take `FC(F)(F)c1ccc(Cc2nc3cc4ccccc4cc3[nH]2)cc1`: the GI50 in the assay with HOP-62 is > 100 µM (inactive); with SK-MEL-5, 54.6 µM (inactive); in the assay with CAKI-1, 73.3 µM (inactive); in the assay on 786-0, 89.5 µM (inactive); with COLO 205, > 100 µM (inactive); in the assay with HT-29, 91.8 µM (inactive). Further, the GI50 in the assay on IGROV-1 was 16 µM (inactive); with HCT-116, > 100 µM (inactive); in the assay with M14 it was > 100 µM (inactive); in the assay with U-251, 71.3 µM (inactive); in the assay on MDA-MB-435, > 100 µM (inactive); with RPMI-8226 it was 6.97 µM (inactive). Also, the GI50 is > 100 µM (inactive) in the assay with Malme-3M; 93.1 µM (inactive) in the assay with HL-60; > 100 µM (inactive) in the assay with KM12; > 100 µM (inactive) in the assay with OVCAR-5; > 100 µM (inactive) in the assay on A498; 77.8 µM (inactive) in the assay on LOX IMVI.
`CC(=O)CC(=O)c1cc2c(=O)oc(C)cc2oc1=O`: the GI50 with HOP-62, in the assay on SK-MEL-5, in the assay on CAKI-1, in the assay on 786-0, with COLO 205 and in the assay on HT-29 was > 37.5 µM (inactive) throughout. The GI50 in the assay on MDA-N, in the assay on IGROV-1, with HCT-116, in the assay on M14, in the assay with U-251 and in the assay with RPMI-8226 was > 37.5 µM (inactive) in each case. The GI50 in the assay on SR, in the assay on Malme-3M, with HL-60, with KM12 and in the assay on OVCAR-5 was > 37.5 µM (inactive) throughout.
As to `O=C(c1nc2ccc(Cl)cc2[nH]c1=O)C(O)c1cccc([N+](=O)[O-])c1` (stereo unspecified), the GI50 in the assay with HOP-62 was > 100 µM (inactive); in the assay on SK-MEL-5, 48.6 µM (inactive); in the assay on CAKI-1, > 100 µM (inactive); in the assay with 786-0, > 100 µM (inactive); in the assay on COLO 205, > 100 µM (inactive); in the assay on HT-29, 16.3 µM (inactive). Also, the GI50 in the assay on IGROV-1 is > 100 µM (inactive); in the assay on HCT-116, > 100 µM (inactive); in the assay on M14, > 100 µM (inactive); in the assay on U-251, > 100 µM (inactive); in the assay on RPMI-8226 it was 9.66 µM (inactive); with SR, 85.7 µM (inactive). The GI50 with Malme-3M is > 100 µM (inactive); with HL-60, 19.8 µM (inactive); in the assay with KM12, 57 µM (inactive); in the assay with OVCAR-5, > 100 µM (inactive); in the assay with A498 it was > 100 µM (inactive); in the assay with LOX IMVI it was 18.5 µM (inactive).
Regarding `COc1ccc(NC(=O)CC(=O)N2N=C(N(CCC#N)c3ccccc3Cl)CC2c2ccccc2)cc1` (stereo unspecified), the GI50 in the assay with HOP-62, in the assay on SK-MEL-5, in the assay on CAKI-1, with 786-0, in the assay with COLO 205 and with HT-29 was > 100 µM (inactive) in each case. Further, the GI50 in the assay with IGROV-1, with HCT-116, with M14, in the assay with U-251, in the assay with RPMI-8226 and in the assay on SR was > 100 µM (inactive) throughout. Also, the GI50 in the assay with Malme-3M, in the assay with HL-60, in the assay with KM12, in the assay on OVCAR-5, in the assay with A498 and in the assay on LOX IMVI was > 100 µM (inactive) in each case.
For `CC1=NN(C(=O)c2ccccc2O)C(=O)/C1=C/c1cccc(O)c1`, the GI50 in the assay with HOP-62 was 1.18 µM (inactive); in the assay on SK-MEL-5, 3.2 µM (inactive); in the assay with CAKI-1, > 100 µM (inactive); in the assay with 786-0, 0.826 µM (active); in the assay on COLO 205 it was 32.8 µM (inactive); in the assay on HT-29 it was 39.2 µM (inactive). Moreover, the GI50 in the assay on MDA-N was 0.603 µM (active); in the assay on IGROV-1 it was 0.198 µM (active); with HCT-116, 0.244 µM (active); in the assay with M14 it was 0.446 µM (active); in the assay with U-251, 0.277 µM (active); with RPMI-8226 it was 0.731 µM (active). The GI50 in the assay on SR is 0.938 µM (active); in the assay with Malme-3M, 1.94 µM (inactive); in the assay with HL-60, 2.9 µM (inactive); in the assay on KM12, 0.389 µM (active); with OVCAR-5 it was 5.56 µM (inactive); with A498, 0.0443 µM (active). The GI50 in the assay with LOX IMVI was 0.597 µM (active).
With `CCOC(=O)c1c(C)n(-c2ccc(C)cc2)c(=O)c2ccccc2c(=O)c2c(=O)ccc(=O)c1=2`, the GI50 with HOP-62 was 18.8 µM (inactive); in the assay with SK-MEL-5 it was 14.7 µM (inactive); in the assay with CAKI-1 it was 14.5 µM (inactive); in the assay on 786-0 it was 31 µM (inactive); in the assay with COLO 205, 15.2 µM (inactive); with HT-29, 12.2 µM (inactive). In addition, the GI50 in the assay on IGROV-1 was 37.5 µM (inactive); in the assay with HCT-116, 17.2 µM (inactive); with M14, 20.4 µM (inactive); with U-251, 19.4 µM (inactive); in the assay on MDA-MB-435 it was 15.3 µM (inactive); in the assay with RPMI-8226, 4.7 µM (inactive). Besides, the GI50 with Malme-3M was 17 µM (inactive); with HL-60 it was 14.1 µM (inactive); with KM12, 13.6 µM (inactive); in the assay on OVCAR-5, 28.6 µM (inactive); with LOX IMVI, 14.7 µM (inactive).
As to `CCOC(=O)c1c(N)sc2c1C(C(=O)OCC)CCC2` (stereo unspecified), the GI50 with HOP-62 was > 100 µM (inactive); in the assay with SK-MEL-5 it was 98.2 µM (inactive); in the assay on 786-0 it was > 100 µM (inactive); with COLO 205 it was > 100 µM (inactive); in the assay on HT-29 it was > 100 µM (inactive); with MDA-N, > 100 µM (inactive). Moreover, the GI50 was > 100 µM (inactive) in the assay with IGROV-1; 79.8 µM (inactive) with HCT-116; > 100 µM (inactive) with M14; > 100 µM (inactive) with U-251; > 100 µM (inactive) with RPMI-8226; 66.7 µM (inactive) with SR. Further, the GI50 with Malme-3M was > 100 µM (inactive); in the assay on HL-60, 53.3 µM (inactive); in the assay on KM12, > 100 µM (inactive); with OVCAR-5, > 100 µM (inactive); in the assay on A498 it was 12.1 µM (inactive).
